Laboratory results: patent publication US20130064821A1, “METHODS AND COMPOSITIONS FOR TREATING PROSTATE CANCER” (priority 2007, published 2013)

Experiments:
[1] = system: LNCaP cells, secreted PSA; assay: PSA production and secretion study in LNCaP cells (Example 6, PSA ELISA); type: cell-based, human; settings: 0.1 nM DHT, 120 hours, versus 5% CSS media alone
Protocol: A human hormone sensitive prostate cancer cell line, LNCaP (ATCC), was exposed to a polypeptide as described in Example 1. The effects of the polypeptide on the production and secretion of the prostate specific antigen, PSA, was then assessed.
The human prostate cancer cell line, LNCaP was obtained from American Type Tissue Collection (ATCC) and was routinely cultured in growth medium containing phenol red RPMI 1640 (Invitrogen, Auckland, New Zealand) supplemented with 10% fetal bovine serum (FBS, 15 GIBCO) and 1% antibiotic/antimycotic mixture (Invitrogen, Auckland, New Zealand). Cells were maintained at 37° C. in 5% CO2. Dilutions were made for the polypeptide (20 ng/ml) in 5% charcoal strip serum (CSS, HyClone) for in vitro experiments.
3×10^3 LNCaP cells were plated per well in quadruplicate in a Falcon 96-well plate and allowed to attach overnight at 5% CO2/37° C. in growth medium (as indicated above). The medium was replaced with fresh complete growth medium after 36 hours. […] After 120 hours in culture, cell culture media was collected from each well and PSA reading was measured in duplicate for each well. Human PSA was measured according to the manufacturers methodology using the PSA ELISA from Diagnostic Systems Laboratories (cat number: DSL-10-9700).
Data are presented as means unless otherwise indicated. Error bars represent the 95% confidence intervals.

[2] = system: LNCaP cells, secreted PSA; assay: PSA production and secretion study in LNCaP cells with T and DHT (Example 7, PSA ELISA); type: cell-based, human; settings: 0.1 nM androgen, 120 hours, versus 5% CSS media alone, mean of 6 wells
Protocol: The effects of the polypeptide on the production and secretion of the prostate specific antigen, PSA, was then assessed.
The human prostate cancer cell line, LNCaP was obtained from American Type Tissue Collection (ATCC) and was routinely cultured in growth medium containing phenol red RPMI 1640 (Invitrogen, Auckland, New Zealand) supplemented with 10% fetal bovine serum (FBS, GIBCO) and 1% antibiotic/antimycotic mixture (Invitrogen, Auckland, New Zealand). Cells were maintained at 37° C. in 5% CO2. Dilutions were made for the polypeptide (20 ng/ml) in 5% charcoal strip serum (CSS, HyClone) for in vitro experiments.
3×10^3 LNCaP cells were plated per well in quadruplicate in a Falcon 96-well plate and allowed to attach overnight at 5% CO2/37° C. in growth medium (as indicated above). The medium was replaced with fresh complete growth medium after 36 hours. […] After 120 hours in culture, cell culture media was collected from each well and a PSA reading was measured in duplicate for each well. Human PSA was measured according to the manufacturers methodology using the PSA ELISA from Diagnostic Systems Laboratories (Cat number: DSL-10-9700).
Data are presented as means unless otherwise indicated.

LNCaP cells = assay: In vitro growth proliferation study of LNCaP cells, calcein fluorescence assay; type: cell-based, human; settings: nilutamide 0.1 μM, 5 days (120 hours), mean of six wells
Protocol: A human hormone sensitive prostate cancer cell line, LNCaP1 was exposed to the AR-LBD-IgG1 FC fusion protein as described in Example 1. The effects of the polypeptide on the growth and proliferation of the cells was then assessed.
In addition, LNCaP cells were also cultured in the presence of the non-steroidal antiandrogen nilutamide
The human prostate cancer cell line, LNCaP was obtained from American Type Tissue Collection (ATCC) and was routinely cultured in growth medium containing phenol red RPM1 1640 (Invitrogen, Auckland, New Zealand) supplemented with 10% fetal bovine serum (FBS1 G1BCO) and 1% antibiotic/antimycotic miyture (Invitrogen, Auckland, New Zealand). Cells were maintained at 37° C. in 5% CO2.
2×10^3 LNCaP cells were plated per well in a Falcon 96-well plate in 5% CO2/37° C. in growth medium in growth medium containing phenol red RPMI 1640 (Invitrogen, Auckland, New Zealand) supplemented with 10% fetal bovine serum (FBS, G1BCO) and 1% antibiotic/antimycotic mixture (Invitrogen, Auckland, New Zealand). Cells were treated with either AR-LBD IgG1 Fc fusion protein (12 ng/ml ) or IgG1 Fc control protein (12 ng/ml). […] Calcein positive cells were detected using a FLUOstar OPTIMA plate reader (BMG Labtech, Victoria, Australia). […]

[3] = target: T1, sex hormone binding globulin (SHBG) (Homo sapiens, UniProt P04278); settings: serum, men; cited from earlier work
T1 sequence (P04278 30-402): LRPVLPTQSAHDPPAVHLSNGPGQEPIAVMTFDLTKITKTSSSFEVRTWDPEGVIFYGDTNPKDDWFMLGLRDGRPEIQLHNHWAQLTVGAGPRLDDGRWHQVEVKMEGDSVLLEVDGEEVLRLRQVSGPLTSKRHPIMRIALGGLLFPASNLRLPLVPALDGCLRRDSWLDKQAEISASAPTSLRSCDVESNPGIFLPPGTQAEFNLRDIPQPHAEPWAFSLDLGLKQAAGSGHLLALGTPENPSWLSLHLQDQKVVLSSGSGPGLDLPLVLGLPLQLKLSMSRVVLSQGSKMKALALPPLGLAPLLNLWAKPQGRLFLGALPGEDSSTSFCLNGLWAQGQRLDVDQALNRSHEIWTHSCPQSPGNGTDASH

albumin = albumin (Homo sapiens, UniProt P02768); settings: serum, men; cited from earlier work
Sequence of albumin (P02768 25-609): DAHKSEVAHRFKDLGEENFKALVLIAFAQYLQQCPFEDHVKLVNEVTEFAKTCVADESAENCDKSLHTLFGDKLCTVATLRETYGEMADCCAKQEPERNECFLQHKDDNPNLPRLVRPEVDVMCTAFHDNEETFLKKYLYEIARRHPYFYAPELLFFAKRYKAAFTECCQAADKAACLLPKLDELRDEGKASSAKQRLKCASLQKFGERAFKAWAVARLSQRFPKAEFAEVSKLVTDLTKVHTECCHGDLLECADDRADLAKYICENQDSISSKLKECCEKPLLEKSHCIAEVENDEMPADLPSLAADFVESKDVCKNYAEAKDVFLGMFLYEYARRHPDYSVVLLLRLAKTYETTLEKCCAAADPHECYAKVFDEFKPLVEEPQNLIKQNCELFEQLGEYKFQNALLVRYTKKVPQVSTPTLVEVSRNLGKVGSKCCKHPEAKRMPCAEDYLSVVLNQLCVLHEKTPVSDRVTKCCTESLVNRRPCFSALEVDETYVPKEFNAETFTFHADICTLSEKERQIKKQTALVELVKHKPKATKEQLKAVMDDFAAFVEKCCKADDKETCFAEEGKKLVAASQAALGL

SMILES | effect of androgen on secreted PSA [1] | effect of androgen on secreted PSA [2] | reduction of prostate cancer cell proliferation (LNCaP cells) | association constant (Ka) with SHBG [3] | association constant (Ka) with albumin (albumin)
C[C@]12CCC(=O)C[C@@H]1CC[C@@H]1[C@@H]2CC[C@]2(C)[C@@H](O)CC[C@@H]12 [DHT, dihydrotestosterone] | significantly boost production of secreted PSA | strongly boost production of secreted PSA |  |  | 
CC1(C)NC(=O)N(c2ccc([N+](=O)[O-])c(C(F)(F)F)c2)C1=O [nilutamide] |  |  | 80% |  | 
C[C@]12CC[C@H]3[C@@H](CCC4=CC(=O)CC[C@@]43C)[C@@H]1CC[C@@H]2O [Testosterone, testosterone] |  | clearly increase production of PSA |  | about 1×10^9 L/mol | about 3×10^4 L/mol
